Data: PMC10584170, “Machine learning-based phenotypic imaging to characterise the targetable biology of Plasmodium falciparum male gametocytes for the development of transmission-blocking antimalarials” (PLOS Pathogens, 2023)
pIC50: −log10 of the molar value. Where two headings read alike, the source gives them in different places.

Experiments:
[1] = test system: P. falciparum male gametocytes; test: P. falciparum Dual Gamete Formation Assay (PfDGFA), male readout (exflagellation); type: cell-based, Plasmodium falciparum NF54; conditions: for Selectivity Ratio M: HepG2 Tox50 versus male IC50; for pIC50: PfDGFA, 24 h incubation with gametocytes before induction, exflagellation readout, read-out: Male IC50; for HitlevelM: number of replicates with >50% inhibition in the male readout
Method in brief: (§1)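 Male and female gamete formation were quantified by microscopy image analysis following 24 h incubation of mature NF54 gametocytes with compound and activation at 28°C with xanthurenic acid.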

[2] = test system: P. falciparum female gametocytes; test: P. falciparum Dual Gamete Formation Assay (PfDGFA), female readout (Pfs25-positive female gametes); type: cell-based, Plasmodium falciparum NF54; conditions: for Selectivity ratio F: HepG2 Tox50 versus female IC50; for pIC50: PfDGFA, 24 h incubation with gametocytes before induction, female gamete readout, read-out: Female IC50; for HitlevelF: number of replicates with >50% inhibition in the female readout
Method in brief: as §1

HepG2 cells = test: HepG2 cytotoxicity counter-screen; conditions: cytotoxic activity against HepG2 cells
[3] = PfDGFA at 2µM, 24h preincubation with gametocytes, average of replicates
[4] = PfDGFA at 2µM, 24h preincubation with gametocytes, replicate R1
[5] = PfDGFA at 2µM, 24h preincubation with gametocytes, replicate R3
[6] = PfDGFA at 2µM, 24h preincubation with gametocytes, replicate R4
[7] = 2µM, 24h preincubation with gametocytes, average of replicates
[8] = 2µM, 24h preincubation with gametocytes, replicate R1
[9] = 2µM, 24h preincubation with gametocytes, replicate R3
[10] = 2µM, 24h preincubation with gametocytes, replicate R4
[11] = 2µM, 24h preincubation with gametocytes prior to induction of gametogenesis, average of replicates
[12] = 2µM, 24h preincubation with gametocytes prior to induction of gametogenesis, replicate R1
[13] = 2µM, 24h preincubation with gametocytes prior to induction of gametogenesis, replicate R3
[14] = 2µM, 24h preincubation with gametocytes prior to induction of gametogenesis, replicate R4

SMILES | Selectivity Ratio M [1] | Average inhibition male (%) [1, 3] | % inhibition male (individual replicates) R1 [1, 4] | % inhibition male (individual replicates) R3 [1, 5] | % inhibition male (individual replicates) R4 [1, 6] | pIC50 [1] | HitlevelM ([1]; 2µM) | Selectivity ratio F [2] | Average inhibition female (%) [2, 3] | % inhibition female (individual replicates) R1 [2, 4] | % inhibition female (individual replicates) R3 [2, 5] | % inhibition female (individual replicates) R4 [2, 6] | pIC50 [2] | HitlevelF ([2]; 2µM) | Tox50 (HepG2 cells) | Average inhibition male (%) [1, 7] | % inhibition male (individual replicates) R1 [1, 8] | % inhibition male (individual replicates) R3 [1, 9] | % inhibition male (individual replicates) R4 [1, 10] | Average inhibition female (%) [2, 7] | also measured
CN(CCCNCc1cccc2ccccc12)CCCNCc1cccc2ccccc12.Cl [TCMDC-137905] | 6.46 | 87.5% | 87.4% | 74.8% | 93.6% | 6.04 | 4 | 4.08 | 42.5% | 35.1% | 30.8% | 35.6% | 5.84 | 1 | 5.94 µM |  |  |  |  |  | 
COCCCNC(=S)NN=C(C)c1ccccn1 [TCMDC-137907] | 1.14 |  |  |  |  |  |  | 1.2 |  |  |  |  |  |  | 0.48 µM |  |  |  |  |  | inhibition at 2 µM ([1]; Plasmodium falciparum, 2µM, 24h preincubation with gametocytes, average of replicates, read-out: Average inhibition male (%)): 100%; inhibition at 2 µM ([1]; Plasmodium falciparum, 2µM, 24h preincubation with gametocytes, replicate R1, read-out: % inhibition male (individual replicates) R1): 99.7%; inhibition at 2 µM ([1]; Plasmodium falciparum, 2µM, 24h preincubation with gametocytes, replicate R2, read-out: % inhibition male (individual replicates) R2): 100%; inhibition at 2 µM ([1]; Plasmodium falciparum, 2µM, 24h preincubation with gametocytes, replicate R3, read-out: % inhibition male (individual replicates) R3): 97.8%; inhibition at 2 µM ([1]; Plasmodium falciparum, 2µM, 24h preincubation with gametocytes, replicate R4, read-out: % inhibition male (individual replicates) R4): 103%; pIC50 ([1]; Plasmodium falciparum): 6.38; inhibition at 2 µM ([2]; Plasmodium falciparum, 2µM, 24h preincubation with gametocytes, average of replicates, read-out: Average inhibition female (%)): 95.6%; inhibition at 2 µM ([2]; Plasmodium falciparum, 2µM, 24h preincubation with gametocytes, replicate R1, read-out: % inhibition female (individual replicates) R1): 95.7%; inhibition at 2 µM ([2]; Plasmodium falciparum, 2µM, 24h preincubation with gametocytes, replicate R2, read-out: % inhibition female (individual replicates) R2): 91.5%; inhibition at 2 µM ([2]; Plasmodium falciparum, 2µM, 24h preincubation with gametocytes, replicate R3, read-out: % inhibition female (individual replicates) R3): 100%; inhibition at 2 µM ([2]; Plasmodium falciparum, 2µM, 24h preincubation with gametocytes, replicate R4, read-out: % inhibition female (individual replicates) R4): 94.6%; pIC50 ([2]; Plasmodium falciparum): 6.40
CN(CCCNCc1ccc2ccccc2c1)CCCNCc1ccc2ccccc2c1.Cl [TCMDC-137908] | 8.05 |  |  |  |  | 6.29 |  | 3.92 |  |  |  |  | 5.98 |  | 4.12 µM | 96.1% | 95.1% | 92.7% | 98.2% | 40.6% | % inhibition female (individual replicates) R1 [2, 8]: 36.9%; % inhibition female (individual replicates) R3 [2, 9]: 42.1%; % inhibition female (individual replicates) R4 [2, 10]: 30.7%
CCOc1cc(CNCCCCCCNCc2cc(OCC)c(OCC)c3ccccc23)c2ccccc2c1OCC.CS(=O)(=O)O [TCMDC-137939] | 1.34 | 69.9% | 72.9% | 51.6% | 76.9% | 5.82 | 4 | 0.94 | 45.9% | 31.3% | 12.7% | 67.3% | 5.67 | 2 | 2.02 µM |  |  |  |  |  | 
COc1cc2ccccc2cc1CCNCCCCNCCc1cc2ccccc2cc1OC.CS(=O)(=O)O [TCMDC-137944] | 3.14 |  |  |  |  | 5.90 |  | 1.14 |  |  |  |  | 5.46 |  | 3.94 µM | 96.6% | 97.3% | 93.0% | 97.4% | 77.7% | % inhibition female (individual replicates) R1 [2, 8]: 77.0%; % inhibition female (individual replicates) R3 [2, 9]: 80.9%; % inhibition female (individual replicates) R4 [2, 10]: 77.1%
CCCOc1ccc(CCNCCCCNCCc2ccc(OCCC)c3ccccc23)c2ccccc12.CS(=O)(=O)O [TCMDC-137952] | 3.16 |  |  |  |  | 6.03 |  | 2.17 |  |  |  |  | 5.86 |  | 2.96 µM | 93.9% | 96.8% | 100.0% | 100.7% | 89.4% | % inhibition female (individual replicates) R1 [2, 8]: 87.3%; % inhibition female (individual replicates) R3 [2, 9]: 99.5%; % inhibition female (individual replicates) R4 [2, 10]: 93.9%
COc1ccc2c(OC)c(CNCCCCCCNCc3ccc4cc(OC)ccc4c3OC)ccc2c1.CS(=O)(=O)O [TCMDC-137953] | 2 | 70.9% | 72.9% | 42.7% | 88.9% | 5.73 | 3 | 2.26 | 35.6% | 27.7% | 6.7% | 49.3% | 5.78 | 1 | 3.73 µM |  |  |  |  |  | 
COc1ccc(CCNCCCCNCCc2ccc(OC)c3ccccc23)c2ccccc12.CS(=O)(=O)O [TCMDC-137961] | 3.28 |  |  |  |  | 5.94 |  | 1.85 |  |  |  |  | 5.69 |  | 3.73 µM | 90.0% | 98.7% | 95.1% | 92.4% | 83.6% | % inhibition female (individual replicates) R1 [2, 8]: 91.7%; % inhibition female (individual replicates) R3 [2, 9]: 93.4%; % inhibition female (individual replicates) R4 [2, 10]: 91.7%
CC(C)Oc1ccc2ccccc2c1CNCCCCCCNCc1c(OC(C)C)ccc2ccccc12.CS(=O)(=O)O [TCMDC-137965] | 1.91 | 73.8% | 86.0% | 74.0% | 91.3% | 5.77 | 3 | 1.26 | 48.8% | 46.4% | 51.5% | 48.5% | 5.59 | 1 | 3.22 µM |  |  |  |  |  | 
CCCOc1ccc2ccccc2c1CNCCCCCCNCc1c(OCCC)ccc2ccccc12.CS(=O)(=O)O [TCMDC-137966] | 1.77 | 79.0% | 79.2% | 56.4% | 86.2% | 5.71 | 4 | 1.2 | 25.2% | 28.6% | 7.7% | 20.1% | 5.54 | 0 | 3.43 µM |  |  |  |  |  | 
COc1ccccc1-c1nc2c(ccc3nc(N)nc(N)c32)[nH]1 [TCMDC-137976] | 1.2 | 63.5% | 72.4% | 76.7% | 81.8% | 5.76 | 3 | 0.68 | 41.0% | 50.1% | 49.2% | 39.4% | 5.52 | 1 | 2.07 µM |  |  |  |  |  | 
CCOCn1c(-c2ccccc2)cc2c3c(N)nc(N)nc3ccc21 [TCMDC-137979] | 0.71 |  |  |  |  | 5.78 |  | 1.17 |  |  |  |  | 6.00 |  | 1.17 µM |  |  |  |  |  | Average inhibition male (%) [1, 11]: 42.1%; % inhibition male (individual replicates) R1 [1, 12]: 55.5%; % inhibition male (individual replicates) R3 [1, 13]: 46.9%; % inhibition male (individual replicates) R4 [1, 14]: 49.0%; HitlevelM ([1]; 2µM, 24h preincubation): 1; Average inhibition female (%) [2, 11]: 82.0%; % inhibition female (individual replicates) R1 [2, 12]: 76.5%; % inhibition female (individual replicates) R3 [2, 13]: 82.3%; % inhibition female (individual replicates) R4 [2, 14]: 83.9%; HitlevelF ([2]; 2µM, 24h preincubation): 4
